Among the data in US12427157B2, “Methods for treatment of diseases involving acidic or hypoxic diseased tissues” (Cybrexa 1, Inc., priority 2018, dated 2025) are IC50 values, retold here.

Residues, ends and D or L forms follow the SMILES beside them. *: point of attachment. X23 = COC(=O)[C@@H](CS*)OC(=O)N(C)Cc1ccc(-c2[nH]c3cc(F)cc4c3c2CCNC4=O)cc1; X24 = CN(Cc1ccc(-c2[nH]c3cc(F)cc4c3c2CCNC4=O)cc1)C(=O)O[C@H](CS*)c1ccccc1; X9 = C[C@@H](COC(=O)N(C)Cc1ccc(-c2[nH]c3cc(F)cc4c3c2CCNC4=O)cc1)S*

The target of the test is PARP (Homo sapiens, UniProt P09874). The test is described as follows: Enzymatic Assay 2: HT Universal Chemiluminescent PARP Assay of cleaved compounds.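 Note: PARP reaction with activated DNA run 1 h at room temperature, product detected via streptavidin-HRP and luminescence endpoint reading on a plate reader.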 Particulars: read-out: IC50 Enzymatic Assay 2; Examples cleaved per Example A (crude cleavage solution); R^8H starting materials as such.
PARP, sequence (P09874 whole entry): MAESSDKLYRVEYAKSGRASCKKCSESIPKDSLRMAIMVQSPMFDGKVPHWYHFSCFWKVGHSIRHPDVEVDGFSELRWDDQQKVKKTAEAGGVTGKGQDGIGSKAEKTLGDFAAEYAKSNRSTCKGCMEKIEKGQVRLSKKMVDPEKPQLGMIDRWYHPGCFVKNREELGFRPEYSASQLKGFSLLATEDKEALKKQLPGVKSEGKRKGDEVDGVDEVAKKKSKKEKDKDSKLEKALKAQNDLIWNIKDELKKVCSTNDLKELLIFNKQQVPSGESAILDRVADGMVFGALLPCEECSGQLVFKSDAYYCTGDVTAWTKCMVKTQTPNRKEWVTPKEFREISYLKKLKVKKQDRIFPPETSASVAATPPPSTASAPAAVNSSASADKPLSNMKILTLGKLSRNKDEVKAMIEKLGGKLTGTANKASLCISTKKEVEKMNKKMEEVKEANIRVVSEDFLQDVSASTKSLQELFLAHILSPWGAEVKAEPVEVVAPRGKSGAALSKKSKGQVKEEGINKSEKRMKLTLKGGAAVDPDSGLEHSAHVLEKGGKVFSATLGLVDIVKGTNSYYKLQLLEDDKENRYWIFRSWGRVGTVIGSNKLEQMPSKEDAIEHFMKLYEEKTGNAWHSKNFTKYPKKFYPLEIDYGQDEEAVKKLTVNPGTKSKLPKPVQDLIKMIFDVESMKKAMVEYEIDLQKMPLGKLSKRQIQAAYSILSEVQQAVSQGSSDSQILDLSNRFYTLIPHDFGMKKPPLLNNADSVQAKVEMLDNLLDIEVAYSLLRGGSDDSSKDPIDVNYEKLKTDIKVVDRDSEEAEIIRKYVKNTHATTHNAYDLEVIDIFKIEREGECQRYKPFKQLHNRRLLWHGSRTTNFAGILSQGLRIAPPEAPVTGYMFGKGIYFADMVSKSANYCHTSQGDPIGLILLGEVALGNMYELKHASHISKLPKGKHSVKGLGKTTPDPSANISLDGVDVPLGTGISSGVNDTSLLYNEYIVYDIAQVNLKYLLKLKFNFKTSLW
Consider `CC(C)C[C@H](NC(=O)[C@H](Cc1ccc(O)cc1)NC(=O)[C@H](C)NC(=O)[C@H](CCCNC(=N)N)NC(=O)[C@H](Cc1c[nH]c2ccccc12)NC(=O)[C@@H]1CCCN1C(=O)[C@H](CC(N)=O)NC(=O)[C@H](CCC(N)=O)NC(=O)[C@H](CC(=O)O)NC(=O)[C@H](CC(=O)O)NC(=O)[C@H](C)N)C(=O)N[C@@H](CC(=O)O)C(=O)N[C@@H](CC(C)C)C(=O)N[C@@H](CC(C)C)C(=O)N[C@@H](Cc1ccccc1)C(=O)N1CCC[C@H]1C(=O)N[C@H](C(=O)N[C@@H](CC(=O)O)C(=O)N[C@H](C(=O)N[C@@H](CC(C)C)C(=O)N[C@@H](CC(C)C)C(=O)N[C@@H](CC(C)C)C(=O)N[C@@H](CC(=O)O)C(=O)N[C@@H](CC(C)C)C(=O)N[C@@H](CC(C)C)C(=O)N[C@@H](Cc1c[nH]c2ccccc12)C(=O)N[C@@H](CSS[C@@H](C)COC(=O)N(C)Cc1ccc(-c2[nH]c3cc(F)cc4c3c2CCNC4=O)cc1)C(=O)NCC(=O)O)[C@@H](C)O)[C@@H](C)O` [Example 21], for which the IC50 – broadly, the concentration that gives 50% inhibition – was found to be 2.2 nM.

In the case of `CC[C@H](C)[C@H](NC(=O)[C@@H]1CCCN1C(=O)[C@H](CC(N)=O)NC(=O)[C@H](CCC(N)=O)NC(=O)[C@H](CCC(=O)O)NC(=O)[C@H](C)N)C(=O)N[C@@H](Cc1ccc(O)cc1)C(=O)N[C@@H](Cc1c[nH]c2ccccc12)C(=O)N[C@@H](C)C(=O)N[C@@H](CCCNC(=N)N)C(=O)N[C@@H](Cc1ccc(O)cc1)C(=O)N[C@@H](C)C(=O)N[C@@H](CC(=O)O)C(=O)N[C@@H](Cc1c[nH]c2ccccc12)C(=O)N[C@@H](CC(C)C)C(=O)N[C@@H](Cc1ccccc1)C(=O)N[C@H](C(=O)N[C@H](C(=O)N1CCC[C@H]1C(=O)N[C@@H](CC(C)C)C(=O)N[C@@H](CC(C)C)C(=O)N[C@@H](CC(C)C)C(=O)N[C@@H](CC(C)C)C(=O)N[C@@H](CC(=O)O)C(=O)N[C@@H](CC(C)C)C(=O)N[C@@H](C)C(=O)N[C@@H](CC(C)C)C(=O)N[C@@H](CC(C)C)C(=O)N[C@H](C(=O)N[C@@H](CC(=O)O)C(=O)N[C@@H](C)C(=O)N[C@@H](CC(=O)O)C(=O)N[C@@H](CCC(=O)O)C(=O)N[C@@H](CSS[C@@H](C)COC(=O)N(C)Cc1ccc(-c2[nH]c3cc(F)cc4c3c2CCNC4=O)cc1)C(=O)NCC(=O)O)C(C)C)[C@@H](C)O)[C@@H](C)O` [Example 22] (H-AEQNPIYWARYADWLFTTPLLLLDLALLVDADEC(X9)G-OH; N-terminus and C-terminus assumed), the IC50 came out at 1.8 nM.

For the compound `CC(C)C[C@H](NC(=O)[C@H](Cc1ccc(O)cc1)NC(=O)[C@H](C)NC(=O)[C@H](CCCNC(=N)N)NC(=O)[C@H](Cc1c[nH]c2ccccc12)NC(=O)[C@@H]1CCCN1C(=O)[C@H](CC(N)=O)NC(=O)[C@H](CCC(N)=O)NC(=O)[C@H](CC(=O)O)NC(=O)[C@H](CC(=O)O)NC(=O)[C@H](C)N)C(=O)N[C@@H](CC(=O)O)C(=O)N[C@@H](CC(C)C)C(=O)N[C@@H](CC(C)C)C(=O)N[C@@H](Cc1ccccc1)C(=O)N1CCC[C@H]1C(=O)N[C@H](C(=O)N[C@@H](CC(=O)O)C(=O)N[C@H](C(=O)N[C@@H](CC(C)C)C(=O)N[C@@H](CC(C)C)C(=O)N[C@@H](CC(C)C)C(=O)N[C@@H](CC(=O)O)C(=O)N[C@@H](CC(C)C)C(=O)N[C@@H](CC(C)C)C(=O)N[C@@H](Cc1c[nH]c2ccccc12)C(=O)N[C@@H](CC(=O)O)C(=O)N[C@@H](C)C(=O)N[C@@H](CC(=O)O)C(=O)N[C@@H](CCC(=O)O)C(=O)N[C@@H](CSS[C@@H](C)COC(=O)N(C)Cc1ccc(-c2[nH]c3cc(F)cc4c3c2CCNC4=O)cc1)C(=O)NCC(=O)O)[C@@H](C)O)[C@@H](C)O` [Example 23], the IC50 turned out to be 2.5 nM.

Regarding `CC[C@H](C)[C@H](NC(=O)[C@@H]1CCCN1C(=O)[C@H](CC(N)=O)NC(=O)[C@H](CCC(N)=O)NC(=O)[C@H](CCC(=O)O)NC(=O)[C@H](C)N)C(=O)N[C@@H](Cc1ccc(O)cc1)C(=O)N[C@@H](Cc1c[nH]c2ccccc12)C(=O)N[C@@H](C)C(=O)N[C@@H](CCCNC(=N)N)C(=O)N[C@@H](Cc1ccc(O)cc1)C(=O)N[C@@H](C)C(=O)N[C@@H](CC(=O)O)C(=O)N[C@@H](Cc1c[nH]c2ccccc12)C(=O)N[C@@H](CC(C)C)C(=O)N[C@@H](Cc1ccccc1)C(=O)N[C@H](C(=O)N[C@H](C(=O)N1CCC[C@H]1C(=O)N[C@@H](CC(C)C)C(=O)N[C@@H](CC(C)C)C(=O)N[C@@H](CC(C)C)C(=O)N[C@@H](CC(C)C)C(=O)N[C@@H](CC(=O)O)C(=O)N[C@@H](CC(C)C)C(=O)N[C@@H](C)C(=O)N[C@@H](CC(C)C)C(=O)N[C@@H](CC(C)C)C(=O)N[C@H](C(=O)N[C@@H](CC(=O)O)C(=O)N[C@@H](C)C(=O)N[C@@H](CC(=O)O)C(=O)N[C@@H](CCC(=O)O)C(=O)N[C@@H](CSSC[C@@H](OC(=O)N(C)Cc1ccc(-c2[nH]c3cc(F)cc4c3c2CCNC4=O)cc1)c1ccccc1)C(=O)NCC(=O)O)C(C)C)[C@@H](C)O)[C@@H](C)O` [Example 25] (H-AEQNPIYWARYADWLFTTPLLLLDLALLVDADEC(X24)G-OH; N-terminus and C-terminus assumed), the half-maximal inhibitory concentration (IC50) came out at 3.4 nM.

Consider `CC[C@H](C)[C@H](NC(=O)[C@@H]1CCCN1C(=O)[C@H](CC(N)=O)NC(=O)[C@H](CCC(N)=O)NC(=O)[C@H](CCC(=O)O)NC(=O)[C@H](C)N)C(=O)N[C@@H](Cc1ccc(O)cc1)C(=O)N[C@@H](Cc1c[nH]c2ccccc12)C(=O)N[C@@H](C)C(=O)N[C@@H](CCCNC(=N)N)C(=O)N[C@@H](Cc1ccc(O)cc1)C(=O)N[C@@H](C)C(=O)N[C@@H](CC(=O)O)C(=O)N[C@@H](Cc1c[nH]c2ccccc12)C(=O)N[C@@H](CC(C)C)C(=O)N[C@@H](Cc1ccccc1)C(=O)N[C@H](C(=O)N[C@H](C(=O)N1CCC[C@H]1C(=O)N[C@@H](CC(C)C)C(=O)N[C@@H](CC(C)C)C(=O)N[C@@H](CC(C)C)C(=O)N[C@@H](CC(C)C)C(=O)N[C@@H](CC(=O)O)C(=O)N[C@@H](CC(C)C)C(=O)N[C@@H](C)C(=O)N[C@@H](CC(C)C)C(=O)N[C@@H](CC(C)C)C(=O)N[C@H](C(=O)N[C@@H](CC(=O)O)C(=O)N[C@@H](C)C(=O)N[C@@H](CC(=O)O)C(=O)N[C@@H](CCC(=O)O)C(=O)N[C@@H](CSSC[C@@H](OC(=O)N(C)Cc1ccc(-c2[nH]c3cc(F)cc4c3c2CCNC4=O)cc1)C(=O)OC)C(=O)NCC(=O)O)C(C)C)[C@@H](C)O)[C@@H](C)O` [Example 26] (H-AEQNPIYWARYADWLFTTPLLLLDLALLVDADEC(X23)G-OH; N-terminus and C-terminus assumed), for which the IC50 turned out to be 2 nM.
